Experiments:
[1] = target: T1, recombinant mouse Nape-pld (Mus musculus, UniProt Q8BH82); experiment: PED-A1 hydrolysis, fluorescence, initial rate; assay type: biochemical
T1 sequence (Q8BH82 1-396): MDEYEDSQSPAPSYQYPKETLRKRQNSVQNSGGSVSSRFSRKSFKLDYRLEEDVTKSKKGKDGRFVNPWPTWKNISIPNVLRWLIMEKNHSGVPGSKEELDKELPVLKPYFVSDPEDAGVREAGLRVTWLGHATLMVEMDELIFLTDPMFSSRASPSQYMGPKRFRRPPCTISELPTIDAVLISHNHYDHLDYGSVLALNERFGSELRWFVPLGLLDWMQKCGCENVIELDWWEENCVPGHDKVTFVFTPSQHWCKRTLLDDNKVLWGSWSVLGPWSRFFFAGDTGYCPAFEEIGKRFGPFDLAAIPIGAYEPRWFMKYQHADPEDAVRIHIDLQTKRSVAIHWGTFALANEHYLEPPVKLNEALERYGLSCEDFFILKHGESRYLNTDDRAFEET

[2] = target: T1, recombinant mouse Nape-pld; experiment: PED-A1 hydrolysis kinetics, fluorescence; assay type: biochemical
[3] = target: T2, Streptomyces chromofuscus phospholipase D (ScPld) (Streptomyces chromofuscus, UniProt Q8KRU5); experiment: PED-A1 hydrolysis, fluorescence; assay type: biochemical
T2 sequence (Q8KRU5 47-556): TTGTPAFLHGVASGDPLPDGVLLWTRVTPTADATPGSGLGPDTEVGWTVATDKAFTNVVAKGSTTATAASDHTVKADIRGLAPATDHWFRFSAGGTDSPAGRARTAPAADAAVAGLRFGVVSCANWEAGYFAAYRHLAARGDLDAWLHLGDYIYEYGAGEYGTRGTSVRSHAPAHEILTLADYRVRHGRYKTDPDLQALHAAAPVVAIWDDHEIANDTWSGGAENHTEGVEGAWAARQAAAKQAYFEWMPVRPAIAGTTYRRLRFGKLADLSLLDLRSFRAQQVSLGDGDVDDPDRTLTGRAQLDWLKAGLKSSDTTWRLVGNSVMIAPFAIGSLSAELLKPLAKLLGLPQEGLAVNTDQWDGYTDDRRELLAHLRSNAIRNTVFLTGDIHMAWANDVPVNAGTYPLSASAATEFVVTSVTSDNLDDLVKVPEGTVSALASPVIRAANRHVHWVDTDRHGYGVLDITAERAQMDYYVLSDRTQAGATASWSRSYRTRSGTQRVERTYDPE

[4] = target: T1, recombinant mouse Nape-pld; experiment: biochemical
[5] = target: NAPE-PLD (endogenous, HEK293 cells) (Homo sapiens, UniProt Q6IQ20); experiment: PED-A1 hydrolysis in intact HEK293 cells, fluorescence; assay type: cell-based; details: 30 min preincubation, 3.5 μM PED-A1
[6] = target: T1, recombinant mouse Nape-pld; experiment: biochemical; remark: listed apart in the source
[7] = target: T1, recombinant mouse Nape-pld; experiment: biochemical; remark: listed apart in the source

Sequence of NAPE-PLD (endogenous, HEK293 cells) (Q6IQ20 whole entry): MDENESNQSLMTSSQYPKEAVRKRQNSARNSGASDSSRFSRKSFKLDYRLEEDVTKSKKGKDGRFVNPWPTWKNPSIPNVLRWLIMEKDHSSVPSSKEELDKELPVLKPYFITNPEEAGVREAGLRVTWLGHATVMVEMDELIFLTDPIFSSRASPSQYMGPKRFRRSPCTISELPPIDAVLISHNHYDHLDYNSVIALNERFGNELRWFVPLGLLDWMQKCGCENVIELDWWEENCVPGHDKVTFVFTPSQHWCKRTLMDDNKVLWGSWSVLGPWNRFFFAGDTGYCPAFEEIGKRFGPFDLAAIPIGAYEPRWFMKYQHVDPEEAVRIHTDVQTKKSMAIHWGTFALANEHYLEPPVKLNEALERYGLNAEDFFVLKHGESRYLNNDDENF

Row | SMILES | IC50 [1] | IC50 [4] | also measured
1 | CC(C)(c1cc(Cl)c(O)c(Cl)c1)c1cc(Cl)c(O)c(Cl)c1 [Inh 24, CAS 79-95-8] | 64.7 µM |  | 
2 | Oc1c(Cl)cc(Cl)c(Cl)c1Cc1c(O)c(Cl)cc(Cl)c1Cl [Inh 1, hexachlorophene] | ~2 µM | 1.6 µM | Ki [2]: ~2000 nM; IC50 [3]: 149 µM; IC50 [5]: 9.8 µM
3 | CC(C)=CCC[C@]1(C)C=Cc2c(O)c3c(c(CC=C(C)C)c2O1)O[C@]12C(=C[C@@H]4C[C@H]1C(C)(C)O[C@@]2(C/C=C(/C)C(=O)O)C4=O)C3=O [Inh 9, Gambogic acid] |  | 9.9 µM | 
4 | O=c1c2ccccc2[se]n1-c1ccccc1 [Inh 4, ebselen] |  | 2.8 µM | 
5 | COc1c(O)cc2oc3cc(O)c(CC=C(C)C)c(O)c3c(=O)c2c1CC=C(C)C [Inh 3, Mangostin] |  | 2.8 µM | 
6 | COc1ccc(Cl)cc1Cc1cc(Cl)ccc1OC [Inh 19, CAS 7569-57-5] |  |  | IC50 [6]: > 200 µM
7 | Oc1c(Cl)cc(Cl)cc1Sc1cc(Cl)cc(Cl)c1O [Inh 2, bithionol] |  | 2.1 µM | IC50 [3]: > 200 µM; IC50 [5]: 10.7 µM
8 | Oc1cc(Cl)ccc1Oc1ccc(Cl)cc1Cl [Inh 25, triclosan] | 62.9 µM |  | 
9 | CC1=C(O)C(=O)C=C2C1=CC=C1[C@@]2(C)CC[C@@]2(C)[C@@H]3C[C@](C)(C(=O)O)CC[C@]3(C)CC[C@]12C [Inh 5, Tripterine] |  | 3 µM | 
10 | COc1ccc(C(=O)c2ccccc2O)c(O)c1 [Inh 14, dioxybenzone] |  | 19.1 µM | 
11 | CCCCC(=O)O[C@H]1CC[C@H]2[C@@H]3CCc4cc(O)ccc4[C@H]3CC[C@]12C [Inh 7, estradiol valerate] | 7.8 µM |  | 
12 | O=C(Nc1ccc(Cl)cc1)Nc1ccc(Cl)c(Cl)c1 [Inh 26, triclocarban] |  |  | IC50 [7]: > 200 µM
13 | Clc1cc(Cl)c(Cl)c(Cc2cc(Cl)cc(Cl)c2Cl)c1 [Inh 15, CAS 2888-15-5] |  |  | IC50 [6]: > 200 µM
14 | Cc1cc2c(C(C)C)c(O)c(O)c(C=O)c2c(O)c1-c1c(C)cc2c(C(C)C)c(O)c(O)c(C=O)c2c1O [Inh 6, Gossypol] |  | 6.9 µM | 
15 | [H]/N=C(\N/C(=N/[H])NCCCCCCNC(=N)NC(=N)Nc1ccc(Cl)cc1)Nc1ccc(Cl)cc1 [Inh 10, Chlorhexidine] |  | 10.4 µM | 

More lines, main results first:

Row | IC50 [1] | IC50 [4] | SMILES | also measured
16 | 2.8 µM |  | Oc1c(Cl)cc(Cl)cc1C(c1cc(Cl)cc(Cl)c1O)C(Cl)(Cl)Cl [Inh 23, CAS 92167-59-4] | 
17 | 23.2 µM |  | Oc1ccc(Cl)cc1Cc1cc(Cl)ccc1O [Inh 17, Dichlorophen] | 
18 | 26.8 µM |  | Oc1ccc(Cl)cc1Sc1cc(Cl)ccc1O [Inh 18, Fenticlor] | 
19 | 5 µM |  | Oc1c(Br)cc(Cl)cc1Cc1cc(Cl)cc(Br)c1O [Inh 22, CAS 15435-29-7] | 
20 | 26.5 µM |  | Oc1c(Cl)cc(Cl)cc1Cc1cc(Cl)cc(Cl)c1O [Inh 21, CAS 1940-43-8] | 
